SMILES strings stand for the structures. Several values for one entry are separate records, joined by “and”; a condition that tells them apart may be missing. Equal entries are not always repeated.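 Cells were grown in 96-well plates and exposed to each compound for 48 hours at five concentrations; endpoints were interpolated linearly between bracketing concentrations, or set to the highest concentration if not reached. The concentration for 50% growth inhibition is given as GI50. TGI denotes the concentration required for complete inhibition of growth.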 Where only a bound is given, the exact number is not on record here.

The test system of one test is RPMI-8226 leukemia. In words: growth of human tumour cells (NCI), 48 h.
For `CCSCC1CC(O)(c2ccccc2)C(c2ccccc2)C(c2ccc(F)cc2)O1` (stereo not given), the GI50 was 1.14 µM and the TGI was 5.95 µM.

Regarding `CCO/C=C1\SC(=S)N(c2ccc(OCC)cc2)C1=O`, the TGI was > 100 µM.

Consider `Nc1nc(=S)c2ncn(C3OC(COP(=O)(O)O)C(O)C3O)c2[nH]1` (stereo not given), for which the GI50 is 0.451 µM and the TGI is > 100 µM.

For `NC(N)=NCCCC(NCc1c2ccccc2nc2ccccc12)C(=O)O` (stereo not given), the TGI was > 53.3 µM.

As to `CC(=O)O[C@H]1CC2C(C3CC[C@H](C(C)CCC(=O)O)[C@]31C)[C@H](OC(C)=O)C[C@@H]1CC3(CC[C@]21C)OOC1(CCC(C)CC1)OO3` (stereo not given in full), the TGI is 6.9 µM and 4.79 µM.

On to `Cc1cnc(C(=O)NNc2nc3sc4c(c3c(=O)[nH]2)C(C)CCC4)cn1` (stereo not given), for which the GI50 is 3.39 µM and the TGI is > 100 µM.

With `O=C1c2ccccc2C(=O)c2c(NC3CCCCC3)ccc(Nc3ccc(S(=O)(=O)O)cc3)c21`, the TGI was > 100 µM.

Consider `CN(C)c1ccc(-c2cc(-c3ccc(Nc4nc(Nc5ccc(Cl)cc5)nc(Nc5ccc(Cl)cc5)n4)cc3)nc(N)c2C#N)cc1`, for which the GI50 was 0.864 µM and the TGI was determined as 53.8 µM.

For `COCCN(Cc1ccc(F)cc1)c1ccc(CO)c(Cl)c1`, the GI50 was 17.6 µM and the TGI was > 95.9 µM.

With `O=C(COc1ccc(/C=C2\Oc3ccccc3C2=O)cc1)Nc1nc2ccccc2s1`, the GI50 was 2.79 µM and the TGI was 15.7 µM.

`CC12OC(=O)C(C#N)C1(C)C1C(=O)CCCC12` (stereo not given): the TGI is > 100 µM.

`CCc1cccc(CC)c1NC(=O)/C(Cl)=C(/Cl)C(=O)O`: the TGI was > 79.4 µM.

As to `O=[N+]([O-])c1ccc(-c2ccc(C3=Nn4c(CNc5ccccc5Cl)nnc4SC3)o2)cc1`, the TGI is > 100 µM.

Take `Cc1cc(Br)c(NC(=O)c2c(-c3c(Cl)cccc3Cl)noc2C)c(Br)c1`: the GI50 is > 100 µM and the TGI was > 100 µM.

Take `OCC1CC[N-]CC1.OCC1CC[N-]CC1.[Cl][Pt+2]([Cl])([Cl])[Cl]`: the GI50 is 15.2 µM and the TGI turned out to be 53.1 µM.

For the molecule `CC(=O)OCC(=O)[C@@]1(O)CC[C@H]2[C@@H]3C[C@H](C)C4=CC(=O)C=C[C@]4(C)[C@@]3(F)[C@@H](O)C[C@@]21C`, the TGI was > 100 µM.

For the molecule `OCCCCC#Cc1ccccc1C#Cc1cccc(C(F)(F)F)c1`, the GI50 was 21.7 µM and the TGI came to 40.6 µM.

Consider `Nc1nc(=S)c2c(ncn2CCO)[nH]1`, for which the TGI was > 100 µM.

`CC(C)Cc1ccc(C(C)/C=C2\CCC(CN(C)C)C2=O)cc1` (stereo not given) showed a TGI of 9.94 µM.

The subject of the next test is SK-MEL-28 melanoma. The test can be described thus: growth of human tumour cells (NCI), 48 h.
On to `CCSCC1CC(O)(c2ccccc2)C(c2ccccc2)C(c2ccc(F)cc2)O1` (stereo not given), for which the GI50 is 1.74 µM and the TGI was 3.4 µM.

Regarding `CCO/C=C1\SC(=S)N(c2ccc(OCC)cc2)C1=O`, the TGI was > 100 µM.

As for `Nc1nc(=S)c2ncn(C3OC(COP(=O)(O)O)C(O)C3O)c2[nH]1` (stereo not given), the GI50 was 6.57 µM and the TGI was > 100 µM.

With `NC(N)=NCCCC(NCc1c2ccccc2nc2ccccc12)C(=O)O` (stereo not given), the TGI is > 100 µM.

Turning to `CC(=O)O[C@H]1CC2C(C3CC[C@H](C(C)CCC(=O)O)[C@]31C)[C@H](OC(C)=O)C[C@@H]1CC3(CC[C@]21C)OOC1(CCC(C)CC1)OO3` (stereo not given in full), the TGI was 11.8 µM and 13.2 µM.

Take `Cc1cnc(C(=O)NNc2nc3sc4c(c3c(=O)[nH]2)C(C)CCC4)cn1` (stereo not given): the GI50 was 1.37 µM and the TGI was determined as 29.6 µM.

`O=C1c2ccccc2C(=O)c2c(NC3CCCCC3)ccc(Nc3ccc(S(=O)(=O)O)cc3)c21`: the TGI is > 100 µM.

With `CN(C)c1ccc(-c2cc(-c3ccc(Nc4nc(Nc5ccc(Cl)cc5)nc(Nc5ccc(Cl)cc5)n4)cc3)nc(N)c2C#N)cc1`, the GI50 was 2.05 µM and the TGI is 6.35 µM.

In the case of `COCCN(Cc1ccc(F)cc1)c1ccc(CO)c(Cl)c1`, the GI50 was 31.3 µM and the TGI was > 100 µM.

Consider `O=C(COc1ccc(/C=C2\Oc3ccccc3C2=O)cc1)Nc1nc2ccccc2s1`, for which the GI50 is 37.5 µM and the TGI was > 100 µM.

On to `CC12OC(=O)C(C#N)C1(C)C1C(=O)CCCC12` (stereo not given), for which the TGI is > 100 µM.

With `CCc1cccc(CC)c1NC(=O)/C(Cl)=C(/Cl)C(=O)O`, the TGI is 50.9 µM.

Regarding `O=[N+]([O-])c1ccc(-c2ccc(C3=Nn4c(CNc5ccccc5Cl)nnc4SC3)o2)cc1`, the TGI is > 100 µM.

Consider `Cc1cc(Br)c(NC(=O)c2c(-c3c(Cl)cccc3Cl)noc2C)c(Br)c1`, for which the GI50 is > 100 µM and the TGI is > 100 µM.

Take `OCC1CC[N-]CC1.OCC1CC[N-]CC1.[Cl][Pt+2]([Cl])([Cl])[Cl]`: the GI50 was 60 µM.

Take `CC(=O)OCC(=O)[C@@]1(O)CC[C@H]2[C@@H]3C[C@H](C)C4=CC(=O)C=C[C@]4(C)[C@@]3(F)[C@@H](O)C[C@@]21C`: the TGI is > 100 µM.

With `OCCCCC#Cc1ccccc1C#Cc1cccc(C(F)(F)F)c1`, the GI50 is 12 µM and the TGI is 25 µM.

With `Nc1nc(=S)c2c(ncn2CCO)[nH]1`, the TGI is > 100 µM.

Consider `CC(C)Cc1ccc(C(C)/C=C2\CCC(CN(C)C)C2=O)cc1` (stereo not given), for which the TGI is 30.4 µM.

In a further test the test system is SK-OV-3 ovarian. In words: growth of human tumour cells (NCI), 48 h.
As to `CCSCC1CC(O)(c2ccccc2)C(c2ccccc2)C(c2ccc(F)cc2)O1` (stereo not given), the GI50 is 2.7 µM and the TGI stood at 9.15 µM.

Turning to `CCO/C=C1\SC(=S)N(c2ccc(OCC)cc2)C1=O`, the TGI is > 100 µM.

As for `Nc1nc(=S)c2ncn(C3OC(COP(=O)(O)O)C(O)C3O)c2[nH]1` (stereo not given), the GI50 was 0.471 µM and the TGI is 5.09 µM.

Take `NC(N)=NCCCC(NCc1c2ccccc2nc2ccccc12)C(=O)O` (stereo not given): the TGI was > 100 µM.

As for `CC(=O)O[C@H]1CC2C(C3CC[C@H](C(C)CCC(=O)O)[C@]31C)[C@H](OC(C)=O)C[C@@H]1CC3(CC[C@]21C)OOC1(CCC(C)CC1)OO3` (stereo not given in full), the GI50 was 10.6 µM and 3.14 µM; the TGI was 22.4 µM and 10.7 µM.

For the molecule `Cc1cnc(C(=O)NNc2nc3sc4c(c3c(=O)[nH]2)C(C)CCC4)cn1` (stereo not given), the GI50 is 0.524 µM and the TGI amounted to 11.1 µM.

Take `O=C1c2ccccc2C(=O)c2c(NC3CCCCC3)ccc(Nc3ccc(S(=O)(=O)O)cc3)c21`: the TGI was > 100 µM.

Consider `CN(C)c1ccc(-c2cc(-c3ccc(Nc4nc(Nc5ccc(Cl)cc5)nc(Nc5ccc(Cl)cc5)n4)cc3)nc(N)c2C#N)cc1`, for which the GI50 was > 100 µM and the TGI was > 100 µM.

Regarding `COCCN(Cc1ccc(F)cc1)c1ccc(CO)c(Cl)c1`, the GI50 was 38.6 µM and the TGI was > 100 µM.

The values are drawn from PubChem BioAssay (NCI).
